What all share (type): cell-based
One assay addresses T1, FKBP12^F36V-GFP (Homo sapiens, UniProt P62942, F37V).
T1 construct: expressed in transfected cells; host or cells: EWS502 (lentiviral pLEX_305-dTAG-GFP)
In words: Immunoblot of EWS502 FKBP12F36V-GFP cells. Particulars: 24 h. The method, then:
To generate 293T^WT FKBP12^F36V-KRAS^G12V and 293T^VHL−/− FKBP12^F36V-KRAS^G12V cells, concentrated lentiviral supernatants[6] were applied to 293T^WT and 293T^VHL−/− cells[33] in the presence of 4 µg mL^−1 polybrene and transduced cell lines were selected with 2 µg mL^−1 puromycin. To generate EWS502 FKBP12^F36V-GFP cells, EWS502 cells were transduced with pLEX_305-dTAG-GFP lentiviral supernatant and selected with 1 µg mL^−1 puromycin. To generate EWS502 FKBP12^F36V-EWS/FLI; EWS/FLI^−/− cells, EWS502 cells were co-transduced with pLEX_305-dTAG-EWS/FLI and lentiCRISPR v2-Blast-sgFLI_Ex9 lentiviral supernatants. Cells were then selected with both 1 µg mL^−1 puromycin (pLEX_305-dTAG-EWS/FLI) and 5 µg mL^−1 blasticidin (lentiCRISPR v2-Blast-sgFLI_Ex9). Knockout of endogenous EWS/FLI and the expression of exogenous FKBP12^F36V-EWS/FLI were confirmed by immunoblot and pooled transduced cell populations were employed for this study. […]
PATU-8902 LACZ-FKBP12^F36V and FKBP12^F36V-KRAS^G12V; KRAS^−/− cells and 293T cells were lysed with RIPA buffer supplemented with cOmplete protease inhibitors (Roche), PhosSTOP phosphatase inhibitors (Roche), and 0.1% benzonase (Novagen). […] Membranes were washed three times with TBS-T, incubated with the appropriate fluorescently labeled infrared secondary antibodies, washed again three times with TBS-T, and assessed using an Odyssey CLx Imager (LI-COR)[6],[15]. […]
A general note: Immunoblotting shows a protein as a band on a membrane.

The next assay deals with T2, FKBP12^F36V-KRAS^G12V (Homo sapiens, UniProt P01116+P62942, F37V/G12V).
T2 construct: KRAS G12V (fusion partner, same polypeptide); expressed in transfected cells
T2 sequence (P62942+P01116 fused P62942:F37V/P01116:G12V): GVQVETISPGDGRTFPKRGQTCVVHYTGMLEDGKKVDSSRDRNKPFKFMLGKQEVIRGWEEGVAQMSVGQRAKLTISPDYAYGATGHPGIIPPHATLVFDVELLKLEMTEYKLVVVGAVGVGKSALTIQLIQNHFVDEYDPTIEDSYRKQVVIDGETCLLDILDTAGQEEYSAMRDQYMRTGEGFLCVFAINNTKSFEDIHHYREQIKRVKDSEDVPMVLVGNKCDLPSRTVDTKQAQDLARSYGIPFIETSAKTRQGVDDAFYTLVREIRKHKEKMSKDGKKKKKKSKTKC
In words: Immunoblot of PATU-8902 FKBP12F36V-KRASG12V; KRAS-/- clone. The settings on record: time-course. The method, then: PATU-8902 LACZ-FKBP12^F36V and FKBP12^F36V-KRAS^G12V; KRAS^−/− cells and 293T cells were lysed with RIPA buffer supplemented with cOmplete protease inhibitors (Roche), PhosSTOP phosphatase inhibitors (Roche), and 0.1% benzonase (Novagen). Proteins were separated using NuPAGE Bolt^TM Bis–Tris gels (Thermo Fisher Scientific) and transferred to nitrocellulose membranes, which were blocked with Odyssey Blocking Buffer (LI-COR) and incubated with primary antibodies overnight. Membranes were washed three times with TBS-T, incubated with the appropriate fluorescently labeled infrared secondary antibodies, washed again three times with TBS-T, and assessed using an Odyssey CLx Imager (LI-COR)[6],[15]. EWS502 cells were lysed with Cell Lysis Buffer (Cell Signaling Technology) supplemented with cOmplete protease inhibitors (Roche). Proteins were separated using SDS-PAGE gels and transferred to PVDF membranes, which were blocked with 5% milk in TBS-T and incubated with primary antibodies overnight. Membranes were washed five times with TBS-T, incubated with the appropriate horseradish peroxidase-conjugated secondary antibodies, washed again five times with TBS-T, and imaged. The following primary antibodies were employed in this study: HA (Cell Signaling Technology #3724 and #2367, dilution at 1:1000), phospho-ERK1/2 T202/Y204 (Cell Signaling Technology #4370, dilution at 1:1000), ERK1/2 (Cell Signaling Technology #4696, dilution at 1:1000), phospho-AKT S473 (Cell Signaling Technology #4060, dilution at 1:1000), AKT (Cell Signaling Technology #2920, dilution at 1:1000), FKBP12 (Abcam #ab24373, dilution at 1:1000), GFP (Cell Signaling Technology #2555, dilution at 1:1000), FLI (Abcam #ab15289, dilution at 1:2000), NKX2-2 (Abcam #ab187375, dilution at 1:1000), GAPDH (Cell Signaling Technology #2118, dilution at 1:3000), Vinculin (Cell Signaling Technology #13901, dilution at 1:3000), β-Actin (Cell Signaling Technology #58169, dilution at 1:3000), and α-Tubulin (Cell Signaling Technology #3873, dilution at 1:5000). Species-specific fluorescently labeled infrared secondary antibodies including IRDye 680LT anti-Mouse IgG (LI-COR #926-68020, dilution at 1:5000), IRDye 800CW anti-Mouse IgG (LI-COR #926-32210, dilution at 1:5000), IRDye 680LT anti-Rabbit IgG (LI-COR #926-68021, dilution at 1:5000), and IRDye 800CW anti-Rabbit IgG (LI-COR #926-32211, dilution at 1:5000) and peroxidase-linked secondary antibodies including anti-Mouse IgG (Thermo Fisher Scientific #45000680, dilution at 1:5000) and anti-Rabbit IgG (Thermo Fisher Scientific #45000682, dilution at 1:5000) were employed as appropriate.

Assay [1] relates to EWS502 FKBP12^F36V-GFP cells. Nature of the assay: Relative growth of EWS502 FKBP12F36V-GFP cells (CellTiter-Glo). The method, then: Cell viability was assayed in 2D-adherent or ultra-low adherent 3D-spheroids using CellTiter-Glo (Promega)[6],[15]. Luminescence was measured on an Envision 2104 plate reader (PerkinElmer) and Fluostar Omega Reader (BMG Labtech) and data was analyzed using GraphPad PRISM v8. Synergy assessments were performed using CellTiter-Glo (Promega) with the following modifications to the protocol described in the ref. [34]. In brief, EWS502 cells were plated at 1000 cells per well in 50 µL of appropriate media in 384-well white culture plates (Corning) allowed to adhere overnight, and 100 nL of compounds were added using a Janus Workstation pin tool (PerkinElmer) for 72 h. Cell viability was measured by addition of 10 µL of CellTiter-glo (Promega), followed by incubation for 15 minutes at room temperature. Luminescence was measured on an Envision 2104 plate reader (PerkinElmer) and data was analyzed using GraphPad PRISM v8.

Values joined by “and” are separate entries in the source; they are usually repeats but may differ in a detail not shown here. Equal entries are not always repeated.

T1 sequence (P62942 2-108 F37V limits assumed): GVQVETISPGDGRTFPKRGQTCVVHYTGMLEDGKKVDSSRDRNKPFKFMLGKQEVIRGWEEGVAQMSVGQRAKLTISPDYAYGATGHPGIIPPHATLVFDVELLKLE

For `CC[C@H](C(=O)N1CCCC[C@H]1C(=O)O[C@H](CCc1ccc(OC)c(OC)c1)c1ccccc1OCC(=O)NCCCCCCOc1cccc2c1C(=O)N(C1CCC(=O)NC1=O)C2=O)c1cc(OC)c(OC)c(OC)c1` (stereo partly drawn) [dTAG-13], the “FKBP12F36V-GFP degradation, immunoblot” value on FKBP12^F36V-GFP is listed as “effectively degraded”.
In the case of `CC[C@H](C(=O)N1CCCC[C@H]1C(=O)O[C@H](CCc1ccc(OC)c(OC)c1)c1ccccc1OCC(=O)NCCCCCCC(=O)N[C@H](C(=O)N1C[C@H](O)C[C@H]1C(=O)N[C@@H](C)c1ccc(-c2scnc2C)cc1)C(C)(C)C)c1cc(OC)c(OC)c(OC)c1` [dTAG^V-1], the “KRASG12V degradation, immunoblot” value on FKBP12^F36V-KRAS^G12V was “rapid KRAS^G12V degradation”. Besides, the “FKBP12F36V-GFP degradation, immunoblot” value on FKBP12^F36V-GFP is “effectively degraded”. The “Relative growth (luminescence values relative to day 0)” value in assay [1] (day 0, technical replicates) is 1.01 and 0.9846 and 0.9416 and 1.081 and 0.9895 and 0.8796 and 1.056 and 1.058; in assay [1] (day 3, technical replicates) it was 7.436 and 7.522 and 7.571 and 8.146 and 7.791 and 7.539 and 7.5229 and 8.295; in assay [1] (day 5, technical replicates) it was 12.9905 and 13.8226 (2×) and 13.4717 and 14.0465 and 14.5379 and 14.3196 and 15.9343; in assay [1] (day 7, technical replicates) it was 19.3543 and 18.2942 and 18.0829 and 20.64 and 18.2038 and 18.0695 and 17.6427 and 20.3483.
Consider `CCC(C(=O)N1CCCCC1C(=O)OC(CCc1ccc(OC)c(OC)c1)c1ccccc1OCC(=O)NCCCCCCC(=O)NC(C(=O)N1CC(O)CC1C(=O)NC(C)c1ccc(-c2scnc2C)cc1)C(C)(C)C)c1cc(OC)c(OC)c(OC)c1` (stereo not drawn) [dTAG^V-1-NEG], for which, at FKBP12^F36V-KRAS^G12V, the “KRASG12V degradation, immunoblot” value was “not induced”. In addition, the “Relative growth (luminescence values relative to day 0)” value is 0.9807 and 0.9337 and 1.074 and 0.9661 and 0.9369 and 1.05 and 0.936 and 1.123 in assay [1] (day 0, technical replicates); 8.012 and 8.414 and 8.126 and 8.231 and 8.041 and 7.9927 and 8.641 and 7.789 in assay [1] (day 3, technical replicates); 16.2325 and 15.4561 and 17.0235 and 15.0335 and 14.9405 and 13.797 and 14.8812 and 15.4178 in assay [1] (day 5, technical replicates); 19.7372 and 19.9296 and 22.6222 and 21.4195 and 20.5619 and 20.5847 and 22.7467 and 21.3128 in assay [1] (day 7, technical replicates).

Values taken from article PMC7501296, “Rapid and direct control of target protein levels with VHL-recruiting dTAG molecules” (Nature Communications, 2020).
